Measurements: ChEMBL document CHEMBL3044578, “Synthesis, insecticidal activity, and molecular docking studies of nitenpyram analogues with a flexible ester arm anchored on tetrahydropyrimidine ring” (2011)
≈ marks a conversion by molar mass, not a printed value.

Key:
Format in all cases: functional
[1] = test system: Nilaparvata lugens; assay: Insecticidal activity against Nilaparvata lugens (brown planthopper) assessed as mortality after 72 hr
[2] = test system: Nilaparvata lugens; assay: Insecticidal activity against Nilaparvata lugens (brown planthopper) assessed as mortality at 500 mg/l after 72 hr
[3] = test system: Nilaparvata lugens; assay: Insecticidal activity against Nilaparvata lugens (brown planthopper) assessed as mortality at 20 mg/l after 72 hr
[4] = test system: Nilaparvata lugens; assay: Insecticidal activity against Nilaparvata lugens (brown planthopper) assessed as mortality at 100 mg/l after 72 hr

Row | Structure (SMILES) | LC50 [1] [µg/mL] | mortality at 500 µg/mL [2] [%] | mortality at 20 µg/mL [3] [%] | mortality at 100 µg/mL [4] [%]
1 | CCN(Cc1ccc(Cl)nc1)C1=C([N+](=O)[O-])CN(CCC(=O)OC(C)C)CN1C | 0.162 (≈ 0.38 µM) | 100 | 100 | 100
2 | CCN(Cc1ccc(Cl)nc1)C1=C([N+](=O)[O-])CN(CC(=O)OC(C)(C)C)CN1C |  | 100 | 47 | 73
3 | CCN(Cc1ccc(Cl)nc1)C1=C([N+](=O)[O-])CN(CC(=O)OCC(C)C)CN1C |  | 100 | 68 | 100
4 | CCCOC(=O)CCN1CC([N+](=O)[O-])=C(N(CC)Cc2ccc(Cl)nc2)N(C)C1 | 0.194 (≈ 0.455 µM) | 100 | 100 | 100
5 | CCN(Cc1ccc(Cl)nc1)C1=C([N+](=O)[O-])CN(CCCC(=O)OC(C)(C)C)CN1C |  | 100 | 36 | 68
6 | CCN(Cc1ccc(Cl)nc1)/C(=C/[N+](=O)[O-])NC [NITENPYRAM] | 0.129 (≈ 0.477 µM) | 100 | 100 | 100
7 | CCN(Cc1ccc(Cl)nc1)C1=C([N+](=O)[O-])CN(CCCC(=O)OCC(C)C)CN1C |  | 100 | 54 | 100
8 | CCC(C)OC(=O)CCN1CC([N+](=O)[O-])=C(N(CC)Cc2ccc(Cl)nc2)N(C)C1 (configuration not stated) |  | 100 | 84 | 100
9 | CCCCOC(=O)CCN1CC([N+](=O)[O-])=C(N(CC)Cc2ccc(Cl)nc2)N(C)C1 |  | 100 | 78 | 92
10 | CCOC(=O)CCCN1CC([N+](=O)[O-])=C(N(CC)Cc2ccc(Cl)nc2)N(C)C1 |  | 100 | 85 | 100
11 | CCCCOC(=O)CN1CC([N+](=O)[O-])=C(N(CC)Cc2ccc(Cl)nc2)N(C)C1 |  | 100 | 67 | 75
12 | CCN(Cc1ccc(Cl)nc1)C1=C([N+](=O)[O-])CN(CCC(=O)OC(C)(C)C)CN1C |  | 100 | 66 | 81
13 | CCCCOC(=O)CCCN1CC([N+](=O)[O-])=C(N(CC)Cc2ccc(Cl)nc2)N(C)C1 |  | 100 | 82 | 100
14 | CCN(Cc1ccc(Cl)nc1)C1=C([N+](=O)[O-])CN(CC(=O)OC(C)C)CN1C |  | 100 | 76 | 85
15 | CCOC(=O)CN1CC([N+](=O)[O-])=C(N(CC)Cc2ccc(Cl)nc2)N(C)C1 |  | 100 | 94 | 100
16 | CCOC(=O)CCN1CC([N+](=O)[O-])=C(N(CC)Cc2ccc(Cl)nc2)N(C)C1 |  | 100 | 93 | 100
17 | CCN(Cc1ccc(Cl)nc1)C1=C([N+](=O)[O-])CN(CC(=O)OC)CN1C |  | 100 | 86 | 94
18 | CCCOC(=O)CN1CC([N+](=O)[O-])=C(N(CC)Cc2ccc(Cl)nc2)N(C)C1 |  | 100 | 73 | 96
19 | O=[N+]([O-])/N=C1\NCCN1Cc1ccc(Cl)nc1 [IMIDACLOPRID] | 0.108 (≈ 0.422 µM) | 100 | 100 | 100
20 | CCN(Cc1ccc(Cl)nc1)C1=C([N+](=O)[O-])CN(CCC(=O)OCC(C)C)CN1C |  | 100 | 52 | 100
21 | CCC(C)OC(=O)CN1CC([N+](=O)[O-])=C(N(CC)Cc2ccc(Cl)nc2)N(C)C1 (configuration not stated) |  | 100 | 53 | 79
22 | CCC(C)OC(=O)CCCN1CC([N+](=O)[O-])=C(N(CC)Cc2ccc(Cl)nc2)N(C)C1 (configuration not stated) |  | 100 | 59 | 93
23 | CCCOC(=O)CCCN1CC([N+](=O)[O-])=C(N(CC)Cc2ccc(Cl)nc2)N(C)C1 |  | 100 | 43 | 100
24 | CCN(Cc1ccc(Cl)nc1)C1=C([N+](=O)[O-])CN(CCCC(=O)OC(C)C)CN1C |  | 100 | 58 | 100
25 | CCN(Cc1ccc(Cl)nc1)C1=C([N+](=O)[O-])CN(CCC(=O)OC)CN1C |  | 100 | 95 | 100
26 | CCN(Cc1ccc(Cl)nc1)C1=C([N+](=O)[O-])CN(CCCC(=O)OC)CN1C |  | 100 | 79 | 100
